According to patent publication US20220089575A1, “FARNESOID X RECEPTOR AGONISTS AND USES THEREOF” (Metacrine, Inc., priority 2017, published 2022):

Target: T1, hFXR (Homo sapiens, UniProt Q96RI1)
T1 construct: expressed in transfected cells; host or cells: CV-1 cells
T1 sequence (Q96RI1 1-486): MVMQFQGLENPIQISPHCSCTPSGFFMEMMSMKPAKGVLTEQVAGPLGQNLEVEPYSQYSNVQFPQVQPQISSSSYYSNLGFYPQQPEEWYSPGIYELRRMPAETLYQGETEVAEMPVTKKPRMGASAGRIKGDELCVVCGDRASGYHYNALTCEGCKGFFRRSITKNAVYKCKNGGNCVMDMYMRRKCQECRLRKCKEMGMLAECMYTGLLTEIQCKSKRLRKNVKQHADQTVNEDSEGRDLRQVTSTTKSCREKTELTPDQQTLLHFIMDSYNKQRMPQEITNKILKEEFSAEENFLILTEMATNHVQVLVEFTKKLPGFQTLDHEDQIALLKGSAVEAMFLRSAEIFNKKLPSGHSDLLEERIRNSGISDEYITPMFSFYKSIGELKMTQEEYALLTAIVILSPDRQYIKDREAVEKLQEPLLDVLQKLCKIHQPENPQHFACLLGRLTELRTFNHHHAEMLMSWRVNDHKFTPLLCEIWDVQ
T1 sequence (P19793 1-462 partner): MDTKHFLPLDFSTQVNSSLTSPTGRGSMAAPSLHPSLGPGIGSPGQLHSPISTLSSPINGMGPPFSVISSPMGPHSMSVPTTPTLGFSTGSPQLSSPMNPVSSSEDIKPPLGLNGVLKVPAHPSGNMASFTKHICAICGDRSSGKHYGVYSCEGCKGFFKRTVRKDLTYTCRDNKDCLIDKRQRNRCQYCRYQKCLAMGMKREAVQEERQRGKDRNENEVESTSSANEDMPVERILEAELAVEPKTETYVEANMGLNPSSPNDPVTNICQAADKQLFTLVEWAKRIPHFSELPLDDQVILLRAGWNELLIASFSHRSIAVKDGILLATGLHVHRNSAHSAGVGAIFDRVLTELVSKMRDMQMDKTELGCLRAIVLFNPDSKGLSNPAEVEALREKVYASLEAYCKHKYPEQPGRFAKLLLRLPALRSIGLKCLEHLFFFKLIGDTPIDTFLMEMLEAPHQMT
Assay: In Vitro FXR Assay (TK): TK-ECRE-luc reporter in transfected CV-1 cells
Format: cell-based
Settings: 18 hrs, luminescence, maximum efficacy of <25% of the Fexarmine control classified as '+'
Summary of the method: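 CV-1, transient co-transfection: hFXR + hRXR + TK-ECRE-luc + pCMX-YFP; charcoal-stripped serum. 18 h post-transfection, DMSO serial dilutions of cpd added; 18 h incubation; lysis, luminescence.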

EC50 [nM] | Structure (SMILES)
≤ 250 | COc1ccc([C@H]2CC[C@H](CN(c3cc(-c4cnn(C(C)C)c4)ccn3)C(=O)[C@H]3CC[C@H](OC(=O)N4CC(S(C)(=O)=O)C4)CC3)CC2)cc1C#N [Compound 6.36, trans-4-(((trans-4-(3-Cyano-4-methoxyphenyl)cyclohexyl)methyl)(4-(1-isopropyl-1H-pyrazol-4-yl)pyridin-2-yl)carbamoyl)cyclohexyl 3-(methylsulfonyl)azetidine-1-carboxylate]
≤ 250 | COc1ccc([C@H]2CC[C@H](CN(c3cc(-c4cnn(C(C)C)c4)ccn3)C(=O)[C@H]3CC[C@H](OC(=O)N4CCOCC4)CC3)CC2)cc1C#N [Compound 6.37, trans-4-(((trans-4-(3-Cyano-4-methoxyphenyl)cyclohexyl)methyl)(4-(1-isopropyl-1H-pyrazol-4-yl)pyridin-2-yl)carbamoyl)cyclohexyl morpholine-4-carboxylate]
≤ 250 | COc1ccc([C@H]2CC[C@H](CN(c3cc(-c4cnn(C(C)C)c4)ccn3)C(=O)[C@H]3CC[C@H](OC(=O)N4CCN(C)CC4)CC3)CC2)cc1C#N [Compound 6.38, trans-4-(((trans-4-(3-Cyano-4-methoxyphenyl)cyclohexyl)methyl)(4-(1-isopropyl-1H-pyrazol-4-yl)pyridin-2-yl)carbamoyl)cyclohexyl 4-methylpiperazine-1-carboxylate]
≤ 250 | COc1ccc([C@H]2CC[C@H](CN(c3cc(-c4cnn(C(C)C)c4)ccn3)C(=O)[C@H]3CC[C@H](OC(=O)N4CC(S(C)(=O)=O)C4)CC3)CC2)nc1C [Compound 6.39, trans-4-((4-(1-Isopropyl-1H-pyrazol-4-yl)pyridin-2-yl)((trans-4-(5-methoxy-6-methylpyridin-2-yl)cyclohexyl)methyl)carbamoyl)cyclohexyl 3-(methylsulfonyl)azetidine-1-carboxylate]
≤ 250 | COc1ccc([C@H]2CC[C@H](CN(c3cc(-c4cnn(C(C)C)c4)ccn3)C(=O)[C@H]3CC[C@H](OC(=O)N4CCOCC4)CC3)CC2)nc1C [Compound 6.40, trans-4-((4-(1-Isopropyl-1H-pyrazol-4-yl)pyridin-2-yl)((trans-4-(5-methoxy-6-methylpyridin-2-yl)cyclohexyl)methyl)carbamoyl)cyclohexyl morpholine-4-carboxylate]
≤ 250 | COc1ccc([C@H]2CC[C@H](CN(c3cc(-c4cnn(C(C)C)c4)ccn3)C(=O)[C@H]3CC[C@H](OC(=O)N4CCN(C)CC4)CC3)CC2)nc1C [Compound 6.41, trans-4-((4-(1-Isopropyl-1H-pyrazol-4-yl)pyridin-2-yl)((trans-4-(5-methoxy-6-methylpyridin-2-yl)cyclohexyl)methyl)carbamoyl)cyclohexyl 4-methylpiperazine-1-carboxylate]
≤ 250 | COc1ccc([C@H]2CC[C@H](CN(c3cccc(-c4cnn(C(C)C)c4)c3)C(=O)[C@H]3CC[C@H](OC(=O)N4CC(S(C)(=O)=O)C4)CC3)CC2)nc1C [Compound 6.42, trans-4-((3-(1-Isopropyl-1H-pyrazol-4-yl)phenyl)((trans-4-(5-methoxy-6-methylpyridin-2-yl)cyclohexyl)methyl)carbamoyl)cyclohexyl 3-(methylsulfonyl)azetidine-1-carboxylate]
≤ 250 | COc1ccc([C@H]2CC[C@H](CN(c3cccc(-c4cnn(C(C)C)c4)c3)C(=O)[C@H]3CC[C@H](OC(=O)N4CCOCC4)CC3)CC2)nc1C [Compound 6.43, trans-4-((3-(1-Isopropyl-1H-pyrazol-4-yl)phenyl)((trans-4-(5-methoxy-6-methylpyridin-2-yl)cyclohexyl)methyl)carbamoyl)cyclohexylmorpholine-4-carboxylate]
≤ 250 | COc1ccc([C@H]2CC[C@H](CN(c3cccc(-c4cnn(C(C)C)c4)c3)C(=O)[C@H]3CC[C@H](OC(=O)N4CCN(C)CC4)CC3)CC2)nc1C [Compound 6.44, trans-4-((3-(1-Isopropyl-1H-pyrazol-4-yl)phenyl)((trans-4-(5-methoxy-6-methylpyridin-2-yl)cyclohexyl)methyl)carbamoyl)cyclohexyl 4-methylpiperazine-1-carboxylate]
≤ 250 | COc1ccc(C23CCC(CN(c4cccc(-c5coc(C6CC6)n5)c4)C(=O)[C@H]4CC[C@H](OC(=O)NCCO)CC4)(CC2)CC3)cc1C [Compound 6.45, 4-((3-(2-Cyclopropyloxazol-4-yl)phenyl) ((4-(4-methoxy-3-methylphenyl)bicyclo [2.2.2]octan-1-yl)methyl)carbamoyl) cyclohexyl trans-(2-hydroxyethyl) carbamate]
≤ 250 | COc1ccc([C@H]2CC[C@H](CN(c3cccc(-c4coc(C5CC5)n4)c3)C(=O)[C@H]3CC[C@H](OC(=O)NCCO)CC3)CC2)cc1C [Compound 6.46, trans-4-((3-(2-Cyclopropyloxazol-4-yl)phenyl)((trans-4-(4-methoxy-3-methylphenyl)cyclohexyl)methyl)carbamoyl)cyclohexyl (2-hydroxyethyl) carbamate]
≤ 250 | COc1ccc([C@H]2CC[C@H](CN(c3cccc(-c4coc(C(C)C)n4)c3)C(=O)[C@H]3CC[C@H](OC(=O)NCCO)CC3)CC2)cc1C [Compound 6.47, trans-4-((3-(2-Isopropyloxazol-4-yl)phenyl)((trans-4-(4-methoxy-3-methylphenyl)cyclohexyl)methyl)carbamoyl)cyclohexyl (2-hydroxyethyl) carbamate]
≤ 250 | COc1ccc([C@H]2CC[C@H](CN(c3cccc(-c4coc(C(C)C)n4)c3)C(=O)[C@H]3CC[C@H](OC(=O)NCCO)CC3)CC2)nc1C [Compound 6.48, trans-4-((3-(2-Isopropyloxazol-4-yl)phenyl)((trans-4-(5-methoxy-6-methylpyridin-2-yl)cyclohexyl)methyl)carbamoyl)cyclohexyl (2-hydroxyethyl)carbamate]
≤ 250 | COc1ccc([C@H]2CC[C@H](CN(c3cccc(-c4coc(C(C)C)n4)c3)C(=O)[C@H]3CC[C@H](OC(=O)NCCCO)CC3)CC2)nc1C [Compound 6.49, trans-4-((3-(2-Isopropyloxazol-4-yl)phenyl)((trans-4-(5-methoxy-6-methylpyridin-2-yl)cyclohexyl)methyl)carbamoyl)cyclohexyl (3-hydroxypropyl)carbamate]
≤ 250 | COc1ccc([C@H]2CC[C@H](CN(c3cccc(-c4coc(C5CC5)n4)c3)C(=O)[C@H]3CC[C@H](OC(=O)NCCO)CC3)CC2)nc1C [Compound 6.50, trans-4-((3-(2-Cyclopropyloxazol-4-yl)phenyl)((trans-4-(5-methoxy-6-methylpyridin-2-yl)cyclohexyl)methyl)carbamoyl)cyclohexyl (2-hydroxyethyl)carbamate]
≤ 250 | COc1ccc([C@H]2CC[C@H](CN(c3cccc(-c4coc(C5CC5)n4)c3)C(=O)[C@H]3CC[C@H](OC(=O)NCCCO)CC3)CC2)nc1C [Compound 6.51, trans-4-((3-(2-Cyclopropyloxazol-4-yl)phenyl)((trans-4-(5-methoxy-6-methylpyridin-2-yl)cyclohexyl)methyl)carbamoyl)cyclohexyl (3-hydroxypropyl)carbamate]
≤ 250 | COc1ccc([C@H]2CC[C@H](CN(c3cc(-c4coc(C5CC5)n4)ccn3)C(=O)[C@H]3CC[C@H](OC(=O)NCCO)CC3)CC2)cc1C [Compound 6.52, trans-4-((4-(2-Cyclopropyloxazol-4-yl)pyridine-2-yl)((trans-4-(4-methoxy-3-methylphenyl)cyclohexyl)methyl)carbamoyl)cyclohexyl (2-hydroxyethyl) carbamate]
≤ 250 | COc1ccc([C@H]2CC[C@H](CN(c3cccc(-c4coc(C5CC5)n4)c3)C(=O)[C@H]3CC[C@H](OC(=O)NCCO)CC3)CC2)cc1C#N [Compound 6.53, trans-4-(((trans-4-(3-Cyano-4-methoxyphenyl)cyclohexyl)methyl)(3-(2-cyclopropyloxazol-4-yl)phenyl)carbamoyl)cyclohexyl (2-hydroxyethyl)carbamate]
≤ 250 | COc1ccc([C@H]2CC[C@H](CN(c3cc(-c4coc(C5CC5)n4)ccn3)C(=O)[C@H]3CC[C@H](OC(=O)NCCO)CC3)CC2)cc1C#N [Compound 6.54, trans-4-(((trans-4-(3-Cyano-4-methoxyphenyl)cyclohexyl)methyl)(4-(2-cyclopropyloxazol-4-yl)pyridine-2-yl)carbamoyl)cyclohexyl (2-hydroxyethyl)carbamate]
≤ 250 | COc1ccc([C@H]2CC[C@H](CN(c3cccc(-c4coc(C5CC5)n4)c3)C(=O)[C@H]3CC[C@H](OC(=O)NCCO)CC3)CC2)nc1C#N [Compound 6.55, trans-4-(((trans-4-(6-Cyano-5-methoxypyridin-2-yl)cyclohexyl)methyl)(3-(2-cyclopropyloxazol-4-yl)phenyl)carbamoyl)cyclohexyl (2-hydroxyethyl)carbamate]
